A value given as a limit tells only on which side of the number the result lay.

Assay [1] addresses T1, biotinylated truncated STAT6 (123-632)-avi (Homo sapiens, UniProt P42226).
T1 construct: 0.15 nM biotinylated truncated STAT6 (123-632)-avi purified from E. coli; made in house; host or cells: E. coli
T1 sequence (P42226 123-632 limits assumed): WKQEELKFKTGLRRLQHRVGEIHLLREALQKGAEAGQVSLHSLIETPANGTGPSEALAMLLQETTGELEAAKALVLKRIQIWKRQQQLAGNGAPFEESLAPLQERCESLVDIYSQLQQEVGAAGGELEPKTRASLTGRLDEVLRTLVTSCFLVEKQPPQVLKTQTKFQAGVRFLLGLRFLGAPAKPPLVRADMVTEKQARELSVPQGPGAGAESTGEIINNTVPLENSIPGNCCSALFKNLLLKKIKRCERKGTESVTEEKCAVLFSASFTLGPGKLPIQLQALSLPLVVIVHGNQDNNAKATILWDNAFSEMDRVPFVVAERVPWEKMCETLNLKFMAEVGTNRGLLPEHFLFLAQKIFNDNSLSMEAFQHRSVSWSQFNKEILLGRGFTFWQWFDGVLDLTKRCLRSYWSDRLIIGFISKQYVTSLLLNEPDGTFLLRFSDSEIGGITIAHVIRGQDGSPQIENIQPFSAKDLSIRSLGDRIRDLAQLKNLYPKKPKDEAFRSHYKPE
The experiment in a line: STAT6 HTRF binding assay. Particulars: 0.15 nM STAT6 (123-632)-avi, 20 nM fluorescein-labeled probe, 30 minutes at room temperature. The protocol: HTRF binding assays were perforned using 0.15 nM biotinylated truncated STAT6 (123-632)-avi purified from E. coli, 1× Streptavidin-terbium (CisBio) prepared by mixing SA-Tb in PPI detection buffer (CisBio), 20 nM proprietary fluorescein-labeled probe, and test compounds in assay buffer consisting of 50 mM HEPES-Na pH 7.5, 100 mM NaCl, 1 mM EDTA, 2 mM DTT, 0.1% Tween-20 with a final volume of 20 uL. Compound stocks were dissolved at 10 mM in 100% DMSO and 11 point titration with 3 fold serial dilution was performed in white, opaque 384 well microplates. Reaction plates were incubated at room temperature for 30 minutes. Plates were centrifuged at low rpm for 5 mins, and the ratio of fluorescence intensities were measured at emission wavelengths for fluorescein acceptor (520 nm) and terbium donor (495 nm) on Envision Plate reader. % Inhibition was calculated from the 520/495 ratio generated by using proprietary positive control compound for 100% inhibition and DMSO only reactions for 0% inhibition. Data was processed and dose response curves were generated using GraphPad Prism to determine the concentration required for inhibiting 50% of the HTRF signal (IC50).
The letter codes for IC50 (μM) include: A (<0.1 μM); B (0.1-1 μM); C (>1-10 μM); D (>10-100 μM); E (>100 μM); and F (not tested).

Assay [2] deals with T2, STAT6 (Homo sapiens, UniProt P42226).
T2 construct: endogenous in cells; host or cells: A549 (STAT6-HiBiT), endogenous locus tagged
T2 sequence (P42226 1-847): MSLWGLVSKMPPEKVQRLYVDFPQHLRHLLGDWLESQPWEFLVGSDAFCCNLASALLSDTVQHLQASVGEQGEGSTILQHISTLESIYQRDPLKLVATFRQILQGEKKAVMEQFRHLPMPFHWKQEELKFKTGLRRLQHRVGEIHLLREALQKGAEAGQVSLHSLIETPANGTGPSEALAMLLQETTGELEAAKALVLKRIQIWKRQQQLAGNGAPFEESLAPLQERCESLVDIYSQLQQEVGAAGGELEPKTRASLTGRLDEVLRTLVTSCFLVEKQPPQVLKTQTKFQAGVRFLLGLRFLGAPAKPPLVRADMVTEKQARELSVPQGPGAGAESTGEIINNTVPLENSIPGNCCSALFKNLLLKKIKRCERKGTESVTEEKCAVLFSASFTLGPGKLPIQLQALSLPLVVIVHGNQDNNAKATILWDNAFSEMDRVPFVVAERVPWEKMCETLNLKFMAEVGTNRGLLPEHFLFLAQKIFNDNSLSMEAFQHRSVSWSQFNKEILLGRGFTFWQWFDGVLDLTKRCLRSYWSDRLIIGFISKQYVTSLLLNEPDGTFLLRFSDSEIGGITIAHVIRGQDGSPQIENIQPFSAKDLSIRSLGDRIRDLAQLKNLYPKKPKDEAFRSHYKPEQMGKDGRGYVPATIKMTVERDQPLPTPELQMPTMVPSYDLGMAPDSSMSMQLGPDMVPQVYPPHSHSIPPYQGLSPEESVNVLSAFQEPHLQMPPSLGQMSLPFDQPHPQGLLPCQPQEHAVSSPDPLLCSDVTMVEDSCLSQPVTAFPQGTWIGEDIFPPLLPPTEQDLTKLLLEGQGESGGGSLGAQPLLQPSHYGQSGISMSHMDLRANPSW
Description: STAT6 HiBiT degradation in A549 (STAT6-HiBiT) cells. The class given is cell-based. Particulars: 24 h. The procedure: Degradation of STAT6 in endogenously tagged STAT6-HiBiT A549 cells was quantitatively measured using the Nano-Glo HiBiT Lytic Detection System (Promega, 3040). A549 (STAT6-HiBiT) cells were seeded in 384-well plates with a density of 1.25k cells per well in 20 μl fresh media. Compounds were then added to the assay plates using the Apricot S3 with a final top concentration of up to 10 uM in a 4-fold dilution series with total of 10 doses. The assay plates were then incubated for 24 hours at 37° C. under 5% CO2. At the assay endpoint, 20 μL of Nano-Glo HiBiT Lytic Reagent was added to each well and agitated on a plate shaker at 300 rpm for 10 minutes at room temperature. Luminescence was read on PHERAStar FSX Instrument (Is integration time). The data was analyzed by GraphPad Prism and the dose dependent STAT6 degradation was fit using the four-parameter inhibitor vs. response nonlinear regression.
The letter codes for DC50 (nM) include: A (<1 nM): B (1-10 nM); C (>10-100 nM); D (>100-1000 nM); E (>1000 nM); and F (not tested). The letter codes for Dmax (%) include: A (>90%); B (>70-90%); C (>50-70%); D (<50%): and E (not tested).
On the technique in general: The HiBiT peptide binds its large partner to form an active luciferase.

Assay [3] deals with T2, STAT6. The experiment in a line: STAT6 MSD degradation in A549 cells. Particulars: 24 h. The class given is cell-based. The procedure: Degradation of STAT6 in cells was quantitatively measured using Meso Scale Discovery (MSD) technology. A549 cells were seeded in 96-well plates with a density of 1.5×10e4 to 5×10e5 cells per well in 100 μl fresh media. Compounds were then added to the assay plates with a final top concentration of up to 10 uM in a 1:3 dilution series with total of 9 doses. The assay plates were then incubated for 4 to 24 hours at 37° C. under 5% CO2. The assay plates were then centrifuged for 5 minutes and the cell pellets were treated with 100 μl/well RIPA lysis buffer (Boston Bioproducts, BP-115D) with protease and phosphatase inhibitors (Roche, 05892791001 and 04906837001). To prepare the MSD assay plates (MSD, L15XA), the plates were coated with the capture antibody (Abnova, H00006778) in PBS, at 40 μl/well. The plates were then incubated overnight at 4° C., washed 1 time with […] TBST buffer (Cell Signaling Technology, #9997S) and blocked with 150 μl/well blocking buffer (MSD, R93BA-4). Cell lysates were then added to MSD assay plates and the plates were incubated at room temperature for 1 hour. The plates were then washed 3 times with 150 μl/well TBST buffer and 25 μl/well primary detection antibody (Cell Signaling Technology, #5397S). The assay plates were then incubated at room temperature for 1 hour, washed 3 times with 150 μl/well TBST buffer, and 25 μl/well secondary detection antibody, SULFO-TAG anti-rabbit antibody (MSD, R32AB-1) were added. The assay plates were then incubated at room temperature for 1 hour, washed 3 times with 150 μl/well TBST buffer, and 150 μl/well MSD reading buffer (MSD, R92TC-2) were added. The plates were then analyzed by an MSD reader. The data was analyzed by GraphPad Prism and the dose dependent STAT6 degradation was fit using the four-parameter inhibitor vs. response nonlinear regression.
The letter codes for DC50 (nM) include: A (<1 nM); B (1-10 nM); C (>10-100 nM); D (>100-1000 nM); E (>1000 nM); and F (not tested). The letter codes for Dmax (%) include: A (>90%); B (>70-90%); C (>50-70%); D (<50%); and E (not tested).

What is called IC50 is the concentration that inhibits the measured activity by half. A low value points to inhibition by little substance. As to `COc1cc(N2CCN(CCc3cccc4c3n(C)c(=O)n4C3CCC(=O)NC3=O)CC2)ccc1-c1cc(C2=CCCN(C(=O)CCn3ccnn3)C2)cc2ccncc12` (stereo not drawn) [I-1401], the IC50 in assay [1] is 10000 to 100000 nM.

One may read the DC50 as the concentration at which degradation of the target reaches its halfway point. One may read the Dmax as the greatest extent of degradation seen. As to `COc1cc(N2CCN(CCc3cccc4c3n(C)c(=O)n4C3CCC(=O)NC3=O)CC2)ccc1-c1cc(C2=CCCN(C(=O)CCn3ccnn3)C2)c(F)c2ccncc12` (stereo not drawn) [I-1271], in assay [2], the DC50 was > 1000 nM and the Dmax was < 50%. In addition, the IC50 in assay [1] lay in the range of 1000 to 10000 nM.

Turning to `COc1cc(N2CCN(CCc3cccc4c3n(C)c(=O)n4C3CCC(=O)NC3=O)CC2)ccc1-c1cc(C2=CCCN(C(=O)CCn3ccnn3)C2)ccc1-n1ccccc1=O` (stereo not drawn) [I-1309], in assay [2], the DC50 is > 1000 nM and the Dmax was < 50%.

`CN(C)C(=O)c1cc2ccc(C3=CCCN(C(=O)C4Cc5c(cccc5OCCOCCOCCOCCOCCc5cccc6c5n(C)c(=O)n6C5CCC(=O)NC5=O)CN4C=O)C3)cc2[nH]1` (stereo not drawn) [I-61]: in assay [3], the DC50 is > 1000 nM and the greatest degradation seen (Dmax) is < 50%.

As to `COc1cc(N2CCN(CCc3cccc4c3n(C)c(=O)n4C3CCC(=O)NC3=O)CC2)ccc1-c1cc(C2=CCCN(C(=O)CCn3ccnn3)C2)c(F)c2cnccc12` (stereo not drawn) [I-1270], in assay [2], the DC50 was > 1000 nM and the Dmax was < 50%. For the same compound, the IC50 in assay [1] is 1000 to 10000 nM.

With `COc1cc(N2CCN(CCc3cccc4c3n(C)c(=O)n4C3CCC(=O)NC3=O)CC2)ccc1-c1cc(C2=CCCN(C(=O)CCn3ccnn3)C2)cnc1CNC(=O)N(C)C` (stereo not drawn) [I-1336], in assay [2], the DC50 was > 1000 nM and the Dmax is < 50%. In assay [1], this compound had an IC50 of 1000 to 10000 nM.

Consider `COc1cc(N2CCN(CCc3cccc4c3n(C)c(=O)n4C3CCC(=O)NC3=O)CC2)ccc1-c1cc(C2=CCCN(C(=O)CCn3ccnn3)C2)cc2ccc(C(=O)N(C)C)cc12` (stereo not drawn) [I-1293], for which, in assay [2], the DC50 was < 1 nM and the Dmax is > 90%. The IC50 in assay [1] was < 100 nM.

In assay [2], `COc1cc(N2CCN(CCc3cccc4c3n(C)c(=O)n4C3CCC(=O)NC3=O)CC2)ccc1-c1cc(C(=O)N(C)C)ccc1C1=CCCN(C(=O)CCn2ccnn2)C1` (stereo not drawn) [I-1323] gave a 50% degradation concentration (DC50) of 100 to 1000 nM and a Dmax of 70 to 90%. The IC50 in assay [1] fell in the range of 100 to 1000 nM.

For the compound `COc1cc(N2CCN(CCc3cccc4c3n(C)c(=O)n4C3CCC(=O)NC3=O)CC2)ccc1-c1cc(C2=CCCN(C(=O)CCn3ccnn3)C2)cc2cc(C(=O)N(C)C)cnc12` (stereo not drawn) [I-1338], in assay [2], the DC50 was > 1000 nM and the greatest degradation seen (Dmax) was < 50%. Besides, the IC50 in assay [1] is 10000 to 100000 nM.

Regarding `CN(C)C(=O)c1cc2ccc(C3=CCCN(C(=O)C4Cc5c(cccc5OCCOCCOCCOCCOCCc5ccc6c(c5)n(C)c(=O)n6C5CCC(=O)NC5=O)CN4C=O)C3)cc2[nH]1` (stereo not drawn) [I-105], in assay [3], the DC50 is > 1000 nM and the Dmax was < 50%.

As for `COc1cc(N2CCN(CCc3cccc4c3n(C)c(=O)n4C3CCC(=O)NC3=O)CC2)ccc1-c1cc(NC(=O)CCn2ccnn2)ccc1-c1ncc(C(=O)N(C)C)[nH]1` (stereo not drawn) [I-1324], in assay [2], the 50% degradation concentration (DC50) is > 1000 nM and the Dmax was < 50%. The compound further had a 50% inhibitory concentration (IC50) in assay [1] of 10000 to 100000 nM.

Take `COc1cc(N2CCN(CCc3cccc4c3n(C)c(=O)n4C3CCC(=O)NC3=O)CC2)ccc1-c1cc(C2=CCCN(C(=O)CCn3ccnn3)C2)ccc1C(=O)N(C)C` (stereo not drawn) [I-1282]: in assay [2], the DC50 was > 1000 nM and the Dmax was < 50%. This compound also showed an IC50 in assay [1] of 10000 to 100000 nM.

In assay [2], `COc1cc(N2CCN(CCc3cccc4c3n(C)c(=O)n4C3CCC(=O)NC3=O)CC2)ccc1-c1cc(C2=CCCN(C(=O)CCn3ccnn3)C2)cc2c1CN(C(=O)N(C)C)C2` (stereo not drawn) [I-1334] displayed a DC50 of 10 to 100 nM and a Dmax of 70 to 90%. The same compound came in with an IC50 in assay [1] of 1000 to 10000 nM.

With `COc1cc(N2CCN(CCc3cccc4c3n(C)c(=O)n4C3CCC(=O)NC3=O)CC2)ccc1-c1cc(C2CCCCN(C(=O)CCn3ccnn3)C2)c(F)c2[nH]c(C(=O)N(C)C)cc12` (stereo not drawn) [I-1292], in assay [2], the DC50 was < 1 nM and the Dmax is > 90%.

Regarding `COc1cc(N2CCN(CCc3cccc4c3n(C)c(=O)n4C3CCC(=O)NC3=O)CC2)ccc1-c1cc(-c2cccc(C(=O)N(C)C)c2)c(F)c2[nH]c(C(=O)N(C)C)cc12` (stereo not drawn) [I-1302], in assay [2], the DC50 was 1 to 10 nM and the Dmax is 70 to 90%. In assay [1], this compound returned an IC50 of 1000 to 10000 nM.

Consider `COc1cc(N2CCN(CCc3cccc4c3n(C)c(=O)n4C3CCC(=O)NC3=O)CC2)ccc1-c1cc(Nc2ccccn2)c(F)c(C2=CCCN(C(=O)CCn3ccnn3)C2)c1` (stereo not drawn) [I-1272], for which, in assay [2], the DC50 is < 1 nM and the Dmax is > 90%. Moreover, the IC50 in assay [1] lay within 100 to 1000 nM.
